This passage reports IC50 results from EP0570112A1, “Cycloalkane derivatives” (ZENECA LIMITED, priority 1992, dated 1993).

pIC50: −log10 of the molar value.

The test has as its target T1, 5-LO (Homo sapiens, UniProt P09917).
T1 construct: incubating a test compound with heparinised human blood, prior to challenge with the calcium ionophore A23187; endogenous in cells; host or cells: blood cells of heparinised human whole blood
T1 sequence (P09917 1-674): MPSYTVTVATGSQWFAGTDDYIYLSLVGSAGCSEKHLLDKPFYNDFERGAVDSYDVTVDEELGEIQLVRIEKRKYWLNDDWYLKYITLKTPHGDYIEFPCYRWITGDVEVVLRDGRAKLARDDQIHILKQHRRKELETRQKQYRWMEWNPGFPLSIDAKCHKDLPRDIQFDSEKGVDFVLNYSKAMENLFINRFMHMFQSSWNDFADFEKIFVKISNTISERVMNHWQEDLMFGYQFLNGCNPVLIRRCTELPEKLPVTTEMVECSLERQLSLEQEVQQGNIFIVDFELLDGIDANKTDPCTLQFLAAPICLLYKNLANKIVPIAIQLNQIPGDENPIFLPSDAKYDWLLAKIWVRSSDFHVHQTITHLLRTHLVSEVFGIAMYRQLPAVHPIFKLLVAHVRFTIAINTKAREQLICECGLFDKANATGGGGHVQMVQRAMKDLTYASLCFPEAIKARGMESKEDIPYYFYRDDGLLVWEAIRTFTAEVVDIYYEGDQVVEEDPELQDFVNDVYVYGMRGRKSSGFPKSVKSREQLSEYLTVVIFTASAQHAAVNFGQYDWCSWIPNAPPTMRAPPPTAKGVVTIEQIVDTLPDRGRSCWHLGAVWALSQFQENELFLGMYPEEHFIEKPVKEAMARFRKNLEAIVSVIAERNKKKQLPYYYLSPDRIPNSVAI
The test can be described thus: Test a): in vitro heparinised human blood challenged with calcium ionophore A23187, radioimmunoassay of LTB4. Particulars: A23187 challenge, read-out: IC₅₀ against LTB₄. The class given is cell-based. From the text:
As stated previously, the compounds of the formula I are inhibitors of the enzyme 5-LO. […] J. Pharmacol. 1985, 84, 34P) which involve the use of a protein-LTB₄ conjugate produced using the procedure of Young et alia (Prostaglandins, 1983, 26(4), 605-613). The effects of a test compound on the enzyme cyclooxygenase (which is involved in the alternative metabolic pathway for arachidonic acid and gives rise to prostaglandins, thromboxanes and related metabolites) may be measured at the same time using the specific radioimmunoassay for thromboxane B₂(TxB₂) described by Carey and Forder (see above). This test provides an indication of the effects of a test compound against 5-LO and also cyclooxygenase in the presence of blood cells and proteins. It permits the selectivity of the inhibitory effect on 5-LO or cyclooxygenase to be assessed. • b) An ex vivo assay system, which is a variation of test a) above, involving administration to a group of rats of a test compound (usually orally as the suspension produced when a solution of the test compound in dimethylsulphoxide is added to carboxymethylcellulose), blood collection, heparinisation, challenge with A23187 and radioimmunoassay of LTB₄ and TxB₂. […]

In the case of `COC1CCC(C)C(c2cccc(OCc3ccc4c(ccc(=O)n4C)c3)c2)C1` (centres unmarked) [Example 2, 1-methoxy-4-methyl-3-[3-(1-methyl-2-oxo-1,2-dihydroquinolin-6-ylmethoxy)phenyl]cyclohexane], the pIC50 is 6.41.

Consider `COC1(OC)CC[C@H](C)[C@H](c2cccc(OCc3ccc4c(ccc(=O)n4C)c3)c2)C1` (racemic) [Example 4, (3RS,4SR)-1,1-dimethoxy-4-methyl-3-[3-(1-methyl-2-oxo-1,2-dihydroquinolin-6-ylmethoxy)phenyl]cyclohexane], for which the pIC50 is 7.40.
